In PubChem BioAssay AID977605 (Broad Institute, 2014):
Calls of active or inactive are those of the source.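 How the source made its calls: active means fitted curve reaches 40% activation below the top valid tested dose, in every test run; inconclusive means test runs disagree on the call; inactive means the rest, including effects opposite to the expected direction.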

assay: E-selectin inducers in HUVECs, dose response, imaging, HUVEC, cherry-picked samples (AID 977605); details: HUVEC E-selectin immunostaining, at 10 µM (top of the series), percent of TNF-alpha response over vehicle;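 further: signal is the share of imaged cells scored positive for E-selectin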

| Structure (SMILES) | activation |
| --- | --- |
| C[C@@H]1CN([C@H](C)CO)C(=O)c2c(c3ccccc3n2C)-c2ccccc2CO[C@@H]1CN(C)Cc1ccccc1C(F)(F)F | 0.002% (inactive) |

same assay, conditions: HUVEC E-selectin immunostaining, at 19.5 µM (top of the series), percent of TNF-alpha response over vehicle

| Structure (SMILES) | activation |
| --- | --- |
| CCCCCCOc1ccc(C(CC(N)=O)C(=O)O)cc1 (centres undefined) | -0.269% (inactive) |
| CC(C)CCNC(=O)[C@H](Cc1ccccc1)N1Cc2ccccc2C1=O | 0.131% (inactive) |
| CC(C)NC(=O)N(C)C[C@@H]1Oc2c(NC(=O)c3ccc(-c4nccs4)cc3)cccc2C(=O)N([C@@H](C)CO)C[C@H]1C | 1.61% (inactive) |
| C[C@@H]1CN([C@H](C)CO)C(=O)c2cccc(NC(=O)Nc3ccc(F)cc3)c2O[C@@H]1CN(C)S(=O)(=O)c1cn(C)cn1 | -0.066% (inactive) |
| C[C@H](CO)N1C[C@H](C)[C@@H](CN(C)S(=O)(=O)c2cn(C)cn2)Oc2ccc(N(C)C)cc2C1=O | 0.037% (inactive) |
| C[C@H]1CN([C@@H](C)CO)C(=O)c2cccc(NC(=O)C3CCOCC3)c2O[C@H]1CN(C)Cc1ccc(Oc2ccccc2)cc1 | 0.01% (inactive) |
| CC(C)NC(=O)N(C)C[C@@H]1Oc2ccc(NC(=O)CCC(F)(F)F)cc2CC(=O)N([C@@H](C)CO)C[C@H]1C | 0.007% (inactive) |
| Cc1noc(C)c1NC(=O)Nc1ccc2c(c1)CC(=O)N([C@@H](C)CO)C[C@H](C)[C@@H](CN(C)C(=O)Nc1ccc(F)cc1)O2 | -0.02% (inactive) |
| COc1ccccc1N1CCN(C(=O)c2ccco2)CC1 | 1.75% (inactive) |
| C[C@H](CO)N1C[C@H](C)[C@H](CN(C)Cc2ccc(Cl)c(Cl)c2)Oc2ccc(NC(=O)Nc3ccc4c(c3)OCO4)cc2CC1=O | -0.197% (inactive) |
| CCCNC(=O)N(C)C[C@@H]1Oc2ncc(C3=CCCC3)cc2C(=O)N([C@H](C)CO)C[C@H]1C | 0.267% (inactive) |
| C[C@@H]1CN([C@H](C)CO)C(=O)c2cccc(NS(C)(=O)=O)c2O[C@@H]1CN(C)Cc1ccncc1 | -0.083% (inactive) |
| Cc1ccc(CSc2nc3[nH]ncc3c(=O)[nH]2)cc1 | 24.6% (inactive) |
| C[C@H](CO)N1C[C@H](C)[C@H](CN(C)Cc2ccncc2)Oc2c(NC(=O)Nc3ccc(F)cc3)cccc2C1=O | -0.19% (inactive) |
| CN(Cc1cccc2ncccc12)C(=O)CC1C(=O)NCCN1Cc1ccc(F)cc1 (centres undefined) | -0.111% (inactive) |
| C[C@H](CO)N1C[C@H](C)[C@H](CN(C)Cc2ccc(Oc3ccccc3)cc2)Oc2c(NS(C)(=O)=O)cccc2C1=O | 3.2% (inactive) |
| Cc1noc(C)c1NC(=O)N(C)C[C@H]1Oc2ccc(NC(=O)c3ccncc3)cc2C(=O)N([C@H](C)CO)C[C@H]1C | 0.014% (inactive) |
| Cc1ccccc1CCN1CCCC(CN(C)C(=O)c2ccc3ncccc3c2)C1 (centres undefined) | 36.6% (inactive) |
| CC(C)NC(=O)N(C)C[C@@H]1Oc2ccc(NC(=O)CCN3CCOCC3)cc2C(=O)N([C@H](C)CO)C[C@H]1C | -0.003% (inactive) |
| COc1ccc(C2c3[nH]c4ccccc4c3C[C@H]3C(=O)N(CC(C)C)CC(=O)N23)c(OC)c1 (some centres undefined) | 0.036% (inactive) |
| C[C@@H]1CN([C@H](C)CO)C(=O)c2cccc(NC(=O)Nc3ccc(F)cc3)c2O[C@H]1CN(C)C(=O)NC1CCCCC1 | 0.496% (inactive) |
| C=CCN(C(=O)c1csnn1)C(C(=O)NC1CCCCC1)c1ccccc1 (centres undefined) | -0.215% (inactive) |
| CC(C)NC(=O)N(C)C[C@@H]1Oc2c(NC(=O)c3cnccn3)cccc2C(=O)N([C@@H](C)CO)C[C@@H]1C | -0.012% (inactive) |
| C[C@@H]1CN([C@@H](C)CO)C(=O)c2cc(NC(=O)NC3CCCCC3)ccc2O[C@@H]1CN(C)Cc1ccc2c(c1)OCO2 | -0.021% (inactive) |
| C[C@@H]1CN([C@@H](C)CO)C(=O)Cc2cc(NC(=O)Cn3cnnn3)ccc2O[C@H]1CN(C)Cc1ccc(Oc2ccccc2)cc1 | 0.416% (inactive) |
| O=C(Nc1cc(C(F)(F)F)cc(C(F)(F)F)c1)Nc1cnn(-c2ccc([N+](=O)[O-])cc2)c1C(F)(F)F | 0.091% (inactive) |
| C[C@H](CO)N1C[C@H](C)[C@@H](CN(C)Cc2ccc(Oc3ccccc3)cc2)Oc2ccc(NS(C)(=O)=O)cc2CC1=O | 0.311% (inactive) |
| C[C@@H]1CN([C@@H](C)CO)C(=O)Cc2cc(NC(=O)c3ccncc3)ccc2O[C@@H]1CN(C)C(=O)Nc1ccc(C(F)(F)F)cc1 | -0.044% (inactive) |

| Structure (SMILES) | activation |
| --- | --- |
| C[C@H](CO)N1C[C@H](C)[C@H](CN(C)C(=O)Nc2ccccc2)Oc2ccc(NS(C)(=O)=O)cc2C1=O | -0.163% (inactive) |
| O=C(NC1CCCC1)C(c1ccc(F)cc1)N(C(=O)c1csnn1)c1ccccc1 (centres undefined) | 0.654% (inactive) |
| CCN(CC)C(=O)c1cn(-c2cccc(OC)c2)c(=O)c2ccccc12 | -0.108% (inactive) |
| COc1cccc(CNC(=O)c2cc3c(cc2Cl)N2CCCCCC2=NS3(=O)=O)c1 | -0.058% (inactive) |
| C[C@H]1CN([C@@H](C)CO)C(=O)Cc2cc(NC(=O)Nc3cccc4ccccc34)ccc2O[C@@H]1CN(C)C(=O)Nc1ccc(C(F)(F)F)cc1 | 14.8% (inactive) |
| O=C(O)CCC(=O)NCC(=O)c1ccc(F)cc1 | -0.239% (inactive) |
| CN(CC(=O)Nc1ccc(Br)cc1)Cc1ccccc1 | 0.013% (inactive) |
| C[C@@H]1CN([C@H](C)CO)C(=O)Cc2cc(NC(=O)Nc3ccccc3)ccc2O[C@@H]1CN(C)C | 4.89% (inactive) |
| COc1ccc(CN(C)C[C@H]2Oc3c(NC(=O)c4cnccn4)cccc3C(=O)N([C@H](C)CO)C[C@@H]2C)cc1 | 0.248% (inactive) |
| C[C@H](CO)N1C[C@H](C)[C@H](CN(C)C)Oc2ccc(NC(=O)Cc3cn(C)c4ccccc34)cc2C1=O | 8.16% (inactive) |
| COc1ccc(NS(=O)(=O)c2ccc3c(c2)CCCN3C(C)=O)cc1 | -0.06% (inactive) |
| Cc1noc(C)c1S(=O)(=O)N(C)C[C@H]1Oc2ccc(NC(=O)Nc3ccc(F)cc3)cc2CC(=O)N([C@H](C)CO)C[C@@H]1C | -0.001% (inactive) |
| COc1ccc(NC(=O)N(C)C[C@@H]2Oc3ccc(NC(=O)c4ccncc4)cc3CC(=O)N([C@H](C)CO)C[C@@H]2C)cc1 | -0.135% (inactive) |
| COc1ccc(CN(C)C[C@@H]2Oc3ccc(NC(=O)c4ccncc4)cc3C(=O)N([C@@H](C)CO)C[C@H]2C)cc1 | 19.2% (inactive) |
| C[C@H]1CN([C@@H](C)CO)C(=O)Cc2cc(NC(=O)Cc3cn(C)c4ccccc34)ccc2O[C@H]1CN(C)Cc1ccc(C(F)(F)F)cc1 | 16.2% (inactive) |
| C[C@H](CO)N1C[C@H](C)[C@H](CN(C)S(=O)(=O)c2cccs2)Oc2c(NC(=O)Nc3ccccc3)cccc2C1=O | 1% (inactive) |
| C[C@@H]1CN([C@H](C)CO)S(=O)(=O)c2ccc(-c3ccccc3)cc2O[C@H]1CN(C)S(C)(=O)=O | -0.007% (inactive) |
| CCCNC(=O)N(C)C[C@H]1Oc2ncc(C3=CCCC3)cc2C(=O)N([C@H](C)CO)C[C@@H]1C | -0.163% (inactive) |
| CC(C)(C)S(=O)(=O)c1cnc(-c2cnccn2)nc1N | -0.028% (inactive) |
| Cc1cc2cc(CNC(=O)c3ccc(S(=O)(=O)N4CCCCC4)cc3)ccc2n1C | 0.135% (inactive) |
| COc1ccc(NC(=O)N(C)C[C@H]2Oc3ccc(NC(=O)c4ccncc4)cc3CC(=O)N([C@H](C)CO)C[C@@H]2C)cc1 | -0.048% (inactive) |
| C[C@@H]1CN([C@@H](C)CO)C(=O)c2cccc(NS(=O)(=O)c3cn(C)cn3)c2O[C@H]1CN(C)Cc1ccncc1 | -0.172% (inactive) |
| CC(=O)Nc1ccc(S(=O)(=O)NNc2cccc(C)c2)cc1 | 0.281% (inactive) |
| COc1ccc(S(=O)(=O)Nc2ccc3c(c2)C(=O)N([C@H](C)CO)C[C@@H](C)[C@@H](CN(C)C(=O)Nc2cccc4ccccc24)O3)cc1 | 1.7% (inactive) |
| C[C@@H]1CN([C@H](C)CO)C(=O)c2cccc(NC(=O)CCCCCC(=O)Nc3ccccc3N)c2O[C@H]1CN(C)C | 0.064% (inactive) |
| O=C(COc1ccc(Cl)cc1)NCCCNC(=O)c1cnccn1 | 0.135% (inactive) |
| Cc1c(C(=O)N2CCN(S(=O)(=O)c3cc(F)ccc3F)CC2)oc2ccccc12 | -0.021% (inactive) |

same assay, conditions: HUVEC E-selectin immunostaining, at 21 µM (top of the series), percent of TNF-alpha response over vehicle

| Structure (SMILES) | activation |
| --- | --- |
| COc1ccc(S(=O)(=O)N(C)C[C@H]2Oc3ccc(NC(=O)Nc4ccc5c(c4)OCO5)cc3CC(=O)N([C@@H](C)CO)C[C@H]2C)cc1 | 0.529% (inactive) |
| C[C@H](CO)N1C[C@H](C)[C@H](CN(C)S(C)(=O)=O)Oc2ccc(NC(=O)C3CCCCC3)cc2C1=O | -0.059% (inactive) |
| Cc1noc(C)c1NC(=O)Nc1ccc2c(c1)CC(=O)N([C@@H](C)CO)C[C@@H](C)[C@@H](CN(C)Cc1ccc(Cl)c(Cl)c1)O2 | 3.17% (inactive) |
| COc1ccc(CN(C)C[C@@H]2Oc3ccc(NC(=O)c4ccncc4)cc3C(=O)N([C@H](C)CO)C[C@H]2C)cc1 | 0.114% (inactive) |
| CC(C)NC(=O)Nc1ccc2c(c1)CC(=O)N([C@H](C)CO)C[C@@H](C)[C@@H](CN(C)Cc1ccc(Cl)c(Cl)c1)O2 | 0.047% (inactive) |
| CC(C)NC(=O)Nc1ccc2c(c1)CC(=O)N([C@H](C)CO)C[C@@H](C)[C@@H](CN(C)Cc1ccc3c(c1)OCO3)O2 | -0.173% (inactive) |
| Cc1noc(C)c1S(=O)(=O)Nc1ccc2c(c1)CC(=O)N([C@H](C)CO)C[C@H](C)[C@@H](CN(C)Cc1ccc(-c3ccccc3)cc1)O2 | -0.276% (inactive) |
| COc1ccc(S(=O)(=O)Nc2ccc3c(c2)CC(=O)N([C@@H](C)CO)C[C@H](C)[C@@H](CN(C)C(=O)NC2CCCCC2)O3)cc1 | 0.142% (inactive) |
| C[C@@H]1CN([C@H](C)CO)C(=O)Cc2cc(NC(=O)Cc3cn(C)c4ccccc34)ccc2O[C@H]1CN(C)Cc1ccc(C(F)(F)F)cc1 | 14% (inactive) |
| Cc1noc(C)c1NC(=O)N(C)C[C@@H]1Oc2ccc(NC(=O)c3ccncc3)cc2C(=O)N([C@H](C)CO)C[C@@H]1C | 0.043% (inactive) |
| C[C@@H]1CN([C@H](C)CO)S(=O)(=O)c2ccc(-c3ccncc3)cc2O[C@H]1CN(C)Cc1ccc(Oc2ccccc2)cc1 | 23.2% (inactive) |
| C[C@H](CO)N1C[C@H](C)[C@H](CN(C)S(=O)(=O)c2ccccc2)Oc2c(NC(=O)C3CCOCC3)cccc2C1=O | 3.15% (inactive) |
| C[C@H](CO)N1C[C@H](C)[C@@H](CN(C)S(C)(=O)=O)Oc2c(NC(=O)C3CCCCC3)cccc2C1=O | 0.25% (inactive) |
